Results: US20190151312A1, “HEPARAN SULFATE BIOSYNTHESIS INHIBITORS FOR THE TREATMENT OF DISEASES” (BioMarin Pharmaceutical Inc., priority 2014, published 2019)

tested on: GM01896 cells (MPS II dermal fibroblasts); test: Assay 1: MPS cellular assay, MPS II (heparan sulfate disaccharide biomarkers by LC-MS); type: cell-based, human; settings: Assay 1 for MPS II, heparan sulfate disaccharide biomarkers (I2a4, I2a6, I2S0 and/or I2S6), read-out: IC50 Range
How it was run: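 MPS II patient dermal fibroblasts (GM01896) treated with compound at ≤30 μM for 4 to 21 days. Heparan sulfate GAGs isolated by anion exchange, digested with heparinases I-III, aniline-tagged against [13C6]aniline standards and quantified by LC-MS; IC50 from curve fitting. Viability monitored by alamar blue or ATP.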

Compared with `Cn1nc2ccc(Nc3cc(-c4ccc5cnn(C)c5c4)nc(N4CCOCC4)n3)cc2n1` [[6-(1-methyl(1H-indazol-6-yl))-2-morpholin-4-ylpyrimidin-4-yl](2-methyl(2-hydrobenzotriazol-5-yl))amine], `Cn1ncc2ccc(-c3cc(Nc4ccc(-n5cccn5)cc4)nc(N4CCOCC4)n3)cc21` [[6-(1-methyl(1H-indazol-6-yl))-2-morpholin-4-ylpyrimidin-4-yl](4-pyrazolylphenyl)amine] is lower in IC50: 1000 to 5000 nM for the first, less than 500 nM for the second. The second is the more potent here.

same assay, conditions: Homo sapiens, Fibroblast, Assay 1 for MPS II, heparan sulfate disaccharide biomarkers (I2a4, I2a6, I2S0 and/or I2S6), read-out: IC50 Range

`Cn1cc2cc(Nc3cc(-c4ccc5cnn(C)c5c4)nc(N4CCOCC4)n3)ccc2n1` [[6-(1-methyl(1H-indazol-6-yl))-2-morpholin-4-ylpyrimidin-4-yl](2-methyl(2H-indazol-5-yl))amine] and `Cn1cc2ccc(Nc3cc(-c4ccc5cnn(C)c5c4)nc(N4CCOCC4)n3)cc2n1` [[6-(1-methyl(1H-indazol-6-yl))-2-morpholin-4-ylpyrimidin-4-yl](2-methyl(2H-indazol-6-yl))amine] fall in the same range of IC50: 1000 to 5000 nM for the first, 1000 to 5000 nM for the second.

Compared with `Cn1ncc2ccc(-c3cc(Nc4cccc(-c5ncco5)c4)nc(N4CCOCC4)n3)cc21` [[6-(1-methyl(1H-indazol-6-yl))-2-morpholin-4-ylpyrimidin-4-yl](3-(1,3-oxazol-2-yl)phenyl)amine], `Cn1ncc2ccc(-c3cc(Nc4ccc(-c5ncco5)cc4)nc(N4CCOCC4)n3)cc21` [[6-(1-methyl(1H-indazol-6-yl))-2-morpholin-4-ylpyrimidin-4-yl](4-(1,3-oxazol-2-yl)phenyl)amine] is lower in IC50: 1000 to 5000 nM for the first, 500 to 1000 nM for the second. The second is the more potent here.

First: Cn1ncc2ccc(-c3cc(Nc4ccc(-n5nccn5)cc4)nc(N4CCOCC4)n3)cc21 [[6-(1-methyl(1H-indazol-6-yl))-2-morpholin-4-ylpyrimidin-4-yl](4-(1,2,3-triazol-2-yl)phenyl)amine]
Second: Cc1ccc(Nc2cc(-c3ccc4cnn(C)c4c3)nc(N3CCOCC3)n2)cc1 [[6-(1-methyl(1H-indazol-6-yl))-2-morpholin-4-ylpyrimidin-4-yl](4-methylphenyl)amine]
The IC50 of the first is lower: less than 500 nM for the first, 1000 to 5000 nM for the second.

`Cn1ncc2ccc(-c3cc(Nc4ccc(-c5ncon5)cc4)nc(N4CCOCC4)n3)cc21` [[6-(1-methyl(1H-indazol-6-yl))-2-morpholin-4-ylpyrimidin-4-yl](4-(1,2,4-oxadiazol-3-yl)phenyl)amine] and `Cn1ncc2ccc(-c3cc(Nc4ccc(-c5nc[nH]n5)cc4)nc(N4CCOCC4)n3)cc21` [[6-(1-methyl(1H-indazol-6-yl))-2-morpholin-4-ylpyrimidin-4-yl](4-(1,2,4-triazolyl)phenyl)amine] fall in the same range of IC50: 500 to 1000 nM for the first, 500 to 1000 nM for the second.

First: Cn1ncc2ccc(-c3cc(Nc4ccc(-c5cocn5)cc4)nc(N4CCOCC4)n3)cc21 [[6-(1-methyl(1H-indazol-6-yl))-2-morpholin-4-ylpyrimidin-4-yl](4-(1,3-oxazol-4-yl)phenyl)amine]
Second: Cn1cnc(-c2ccc(Nc3cc(-c4ccc5cnn(C)c5c4)nc(N4CCOCC4)n3)cc2)c1 [[6-(1-methyl(1H-indazol-6-yl))-2-morpholin-4-ylpyrimidin-4-yl][4-(1-methylimidazol-4-yl)phenyl]amine]
The IC50 of the first is lower: less than 500 nM for the first, 500 to 1000 nM for the second.

First: Cn1ncc2ccc(-c3cc(Nc4ccc(C5=NCCO5)cc4)nc(N4CCOCC4)n3)cc21 [[6-(1-methyl(1H-indazol-6-yl))-2-morpholin-4-ylpyrimidin-4-yl](4-(1,3-oxazolin-2-yl)phenyl)amine]
Second: Cn1ncc2ccc(-c3cc(Nc4ccc(-c5ccn[nH]5)cc4)nc(N4CCOCC4)n3)cc21 [[6-(1-methyl(1H-indazol-6-yl))-2-morpholin-4-ylpyrimidin-4-yl](4-pyrazol-5-ylphenyl)amine]
The IC50 of the first is higher: 1000 to 5000 nM for the first, less than 500 nM for the second.

First: Cn1ncc2ccc(-c3cc(Nc4ccc(-c5ccc[nH]5)cc4)nc(N4CCOCC4)n3)cc21 [[6-(1-methyl(1H-indazol-6-yl))-2-morpholin-4-ylpyrimidin-4-yl](4-pyrrol-2-ylphenyl)amine]
Second: Cn1ncc2ccc(-c3cc(Nc4ccc(-c5cc[nH]c5)cc4)nc(N4CCOCC4)n3)cc21 [[6-(1-methyl(1H-indazol-6-yl))-2-morpholin-4-ylpyrimidin-4-yl](4-pyrrol-3-ylphenyl)amine]
The IC50 of the first is higher: 1000 to 5000 nM for the first, 500 to 1000 nM for the second.

`Cn1ccnc1-c1ccc(Nc2cc(-c3ccc4cnn(C)c4c3)nc(N3CCOCC3)n2)cc1` [[6-(1-methyl(1H-indazol-6-yl))-2-morpholin-4-ylpyrimidin-4-yl][4-(1-methylimidazol-2-yl)phenyl]amine] and `Cn1ccc(-c2ccc(Nc3cc(-c4ccc5cnn(C)c5c4)nc(N4CCOCC4)n3)cc2)n1` [[6-(1-methyl(1H-indazol-6-yl))-2-morpholin-4-ylpyrimidin-4-yl][4-(1-methylpyrazol-3-yl)phenyl]amine] fall in the same range of IC50: 500 to 1000 nM for the first, 500 to 1000 nM for the second.

First: Cc1c[nH]nc1-c1ccc(Nc2cc(-c3ccc4cnn(C)c4c3)nc(N3CCOCC3)n2)cc1 [[6-(1-methyl(1H-indazol-6-yl))-2-morpholin-4-ylpyrimidin-4-yl][4-(4-methylpyrazolyl)phenyl]amine]
Second: Cc1nnc(-c2ccc(Nc3cc(-c4ccc5cnn(C)c5c4)nc(N4CCOCC4)n3)cc2)[nH]1 [[6-(1-methyl(1H-indazol-6-yl))-2-morpholin-4-ylpyrimidin-4-yl][4-(5-methyl(4H-1,2,4-triazol-3-yl))phenyl]amine]
The IC50 of the first is higher: 1000 to 5000 nM for the first, less than 500 nM for the second. The second is the more potent here.

Compared with `Cn1ncc2ccc(-c3cc(Nc4ccc(-c5nnc(C(F)(F)F)[nH]5)cc4)nc(N4CCOCC4)n3)cc21` [[6-(1-methyl(1H-indazol-6-yl))-2-morpholin-4-ylpyrimidin-4-yl]{4-[5-(trifluoromethyl)(4H-1,2,4-triazol-3-yl)]phenyl}amine], `Cn1ncc2ccc(-c3cc(Nc4ccc(-c5ncc(C(F)(F)F)[nH]5)cc4)nc(N4CCOCC4)n3)cc21` [[6-(1-methyl(1H-indazol-6-yl))-2-morpholin-4-ylpyrimidin-4-yl]{4-[5-(trifluoromethyl)imidazol-2-yl]phenyl}amine] is lower in IC50: 1000 to 5000 nM for the first, 500 to 1000 nM for the second. The second is the more potent here.

First: Cc1ccc(Nc2cc(-c3ccc4c(c3)ncn4C)nc(N3CCOCC3)n2)cc1 [[6-(1-methylbenzimidazol-5-yl)-2-morpholin-4-ylpyrimidin-4-yl](4-methylphenyl)amine]
Second: Cc1ccc(Nc2cc(-c3ccc4ncn(C)c4c3)nc(N3CCOCC3)n2)cc1 [[6-(1-methylbenzimidazol-6-yl)-2-morpholin-4-ylpyrimidin-4-yl](4-methylphenyl)amine]
The IC50 of the first is lower: 500 to 1000 nM for the first, 1000 to 5000 nM for the second. The first is the more potent here.

`Cn1cnc2ccc(-c3cc(Nc4ccccc4)nc(N4CCOCC4)n3)cc21` [[6-(1-methylbenzimidazol-6-yl)-2-morpholin-4-ylpyrimidin-4-yl]phenylamine] and `CN(C)c1ccc(Nc2cc(-c3ccc4ncn(C)c4c3)nc(N3CCOCC3)n2)cc1` [dimethyl(4-{[6-(1-methylbenzimidazol-6-yl)-2-morpholin-4-ylpyrimidin-4-yl]amino}phenyl)amine] fall in the same range of IC50: 1000 to 5000 nM for the first, 1000 to 5000 nM for the second.

First: Cn1nc(Cl)c2ccc(-c3cc(Nc4ccc(Cl)cc4)nc(N4CCOCC4)n3)cc21 [[6-(3-chloro-1-methyl(1H-indazol-6-yl))-2-morpholin-4-ylpyrimidin-4-yl](4-chlorophenyl)amine]
Second: CN(C)CCNc1nn(C)c2cc(-c3cc(Nc4ccc(Cl)cc4)nc(N4CCOCC4)n3)ccc12 [{2-[(6-{6-[(4-chlorophenyl)amino]-2-morpholin-4-ylpyrimidin-4-yl}-1-methyl(1H-indazol-3-yl))amino]ethyl}dimethylamine]
The IC50 of the first is higher: 1000 to 5000 nM for the first, 500 to 1000 nM for the second. The second is the more potent here.

`Cn1ncc2ccc(-c3cc(Nc4ccc5ncoc5c4)nc(N4CCOCC4)n3)cc21` [benzoxazol-6-yl[6-(1-methyl(1H-indazol-6-yl))-2-morpholin-4-ylpyrimidin-4-yl]amine] and `Cn1ncc2ccc(-c3cc(Nc4ccc5cc[nH]c5c4)nc(N4CCOCC4)n3)cc21` [indol-6-yl[6-(1-methyl(1H-indazol-6-yl))-2-morpholin-4-ylpyrimidin-4-yl]amine] fall in the same range of IC50: 1000 to 5000 nM for the first, 1000 to 5000 nM for the second.

First: CN(C)CCCc1nn(C)c2cc(-c3cc(Nc4ccc5ccn(C)c5c4)nc(N4CCOCC4)n3)ccc12 [dimethyl[3-(1-methyl-6-{6-[(1-methylindol-6-yl)amino]-2-morpholin-4-ylpyrimidin-4-yl} (1H-indazol-3-yl))propyl]amine]
Second: Cn1nc(CCN2CCOCC2)c2ccc(-c3cc(Nc4ccc5cc[nH]c5c4)nc(N4CCOCC4)n3)cc21 [indol-6-yl{6-[1-methyl-3-(2-morpholin-4-ylethyl)(1H-indazol-6-yl)]-2-morpholin-4-ylpyrimidin-4-yl}amine]
The IC50 of the first is lower: less than 500 nM for the first, 500 to 1000 nM for the second. The first is the more potent here.

`COC(=O)c1ccc(Nc2cc(-c3ccc4cnn(CCCN5CCOCC5)c4c3)nc(N3CCOCC3)n2)cc1` [methyl 4-({2-morpholin-4-yl-6-[1-(3-morpholin-4-ylpropyl)(1H-indazol-6-yl)]pyrimidin-4-yl}amino)benzoate] and `COCCn1ncc2ccc(-c3cc(Nc4ccc(C(=O)OC)cc4)nc(N4CCOCC4)n3)cc21` [methyl 4-({6-[1-(2-methoxyethyl)(1H-indazol-6-yl)]-2-morpholin-4-ylpyrimidin-4-yl}amino)benzoate] fall in the same range of IC50: 500 to 1000 nM for the first, 500 to 1000 nM for the second.

First: COCCn1cnc2ccc(-c3cc(Nc4ccc(C(=O)OC)cc4)nc(N4CCOCC4)n3)cc21 [methyl 4-({6-[1-(2-methoxyethyl)benzimidazol-6-yl]-2-morpholin-4-ylpyrimidin-4-yl}amino)benzoate]
Second: COC(=O)c1ccc(Nc2cc(-c3ccc4cnn(C)c4c3)nc(N3CCOCC3)n2)cc1 [methyl 4-{[6-(1-methyl(1H-indazol-6-yl))-2-morpholin-4-ylpyrimidin-4-yl]amino}benzoate]
The IC50 of the first is lower: less than 500 nM for the first, 1000 to 5000 nM for the second.

First: CNS(=O)(=O)c1ccc(Nc2cc(-c3ccc4cnn(C)c4c3)nc(N3CCOCC3)n2)cc1 [methyl[(4-{[6-(1-methyl(1H-indazol-6-yl))-2-morpholin-4-ylpyrimidin-4-yl]amino}phenyl)sulfonyl]amine]
Second: CNC(=O)c1ccc(Nc2cc(-c3ccc4cnn(CCN(C)C)c4c3)nc(N3CCOCC3)n2)cc1 [{4-[(6-{1-[2-(dimethylamino)ethyl](1H-indazol-6-yl)}-2-morpholin-4-ylpyrimidin-4-yl)amino]phenyl}-N-methylcarboxamide]
The IC50 of the first is higher: 1000 to 5000 nM for the first, 500 to 1000 nM for the second.
